# Experimental data as given in US10624948B2, “Use of cell-permeable peptide inhibitors of the JNK signal transduction pathway for the treatment of various diseases” (Xigen Inflammation Ltd., priority 2013, dated 2020).
# Square brackets hold non-standard residues; d marks the D form. Ends that are not written are not given here.
# Assays:
# [1] = test system: Sprague-Dawley albino rats, light-induced photoreceptor cell death; format: in vivo
# Experimental: The aim of this study was to investigate the dose effect of XG-102 on light-induced photoreceptor cell death.
# Test item (XG-102: 30 mg/ml, 3 mg/ml, and 0.3 mg/ml) and vehicle (0.9% NaCl) were administered by intravitreal injection in right eyes the day before induction. The reference (Phenyl-N-test-Butylnitrone (PBN) (50 mg/kg)) and vehicle were intraperitoneally injected 30 min before induction then, 3 times during 12 hours of light exposition, then once after induction. Animals were placed in constant light (7000 lux) for 24 h. Electroretinograms (ERG) were recorded before light treatment and on days 9, 16 and 23 after induction. Eyes were then taken for histology and outer nuclear layer (ONL) thickness assessment. The table below summarizes the allocation of animals in treatment groups:
# For the intravitreal injection animals were anesthetized by intramuscular injection of a mixture of xylazine/ketamine. Test item (5 μl) and vehicle (5 μl) were injected in the right eye. The injection was performed under an operating microscope in the supratemporal area at pars plana using a 33G-needle mounted on a 50 μl Hamilton. The filled syringe was mounted into the UltraMicroPump III to achieve accurate injection in microliter range. Reference and vehicle were injected intraperitoneally at a dose volume of 2.5 ml/kg using a 30G-needle mounted on a 1 ml-syringe.
# Light Exposure: The rats that had been dark-adapted overnight were exposed for 24 hours to a continuous white fluorescent light (7000 lx) in clear plastic cages. Each cage contained one rat. After exposure, the rats returned to rearing cyclic light conditions.
# ERG was recorded before induction and 7, 14 and 21 days after cessation of exposure (Days 9, 16 and 23) on right eyes of dark-adapted and anesthezied animals. The latency times (for a- and b-wave) and the a-wave and b-wave amplitudes were measured for each ERG; the latency times were expressed as millisecond and the a-wave and b-wave as a percentage of the baseline value obtained before light exposure. 15 min before measurement 10 μl Mydriaticum® (0.5% tropicamide) were instilled for pupillary dilatation.
# Measurement of the ONL Thickness: After ERG testing, animal was euthanized by an overdose of pentobarbital and the right eyes were enucleated, fixed and embedded in paraffin. Sections (5 μm thick) were performed along the vertical meridian and stained with Trichrome-Masson. The vertical meridian included the optic nerve.
# [2] = test system: JNK signaling in HeLa cells (GAL-Jun, MKK4/MKK7); test: GAL4 luciferase reporter of c-Jun activation; format: cell-based; conditions: 1 μM, 16 hours
# From the text: To determine whether the cell-permeable peptides as defined herein could block JNK signaling in vivo, we used a heterologous GAL4 system. HeLa cells, cultured as described above, were co-transfected with the 5×GAL-LUC reporter vector together with the GAL-Jun expression construct (Stratagene) comprising the activation domain of c-Jun (amino acids 1-89) linked to the GAL4 DNA-binding domain. Activation of JNK was achieved by the co-transfection of vectors expressing the directly upstream kinases MKK4 and MKK7 (see Whitmarsh et al., Science 285: 1573 (1999)). Briefly, 3×10^5 cells were transfected with the plasmids in 3.5-cm dishes using DOTAP (Boehringer Mannheim) following instructions from the manufacturer. For experiments involving GAL-Jun, 20 ng of the plasmid was transfected with 1 μg of the reporter plasmid pFR-Luc (Stratagene) and 0.5 μg of either MKK4 or MKK7 expressing plasmids. Three hours following transfection, cell media were changed and TAT and TAT-IB1(s) peptides (1 μM) were added. The luciferase activities were measured 16 hours later using the “Dual Reporter System” from Promega after normalization to protein content. […] Because HeLa cells express JNK1 and JNK2 isoforms but not JNK3, we transfected cells with JNK3.
# [3] = test system: JNKs from UV-light irradiated HeLa cells or IL-1 treated PTC cells; test: c-Jun phosphorylation by activated JNKs pulled down with GST-Jun; format: biochemical; conditions: 25 μM
# Experimental: The effects of the L-TAT or L-TAT-IB1(s) peptides as defined herein on JNKs activated by stressful stimuli were evaluated using GST-Jun to pull down JNKs from UV-light irradiated HeLa cells or IL-1 treated PTC cells. PTC cells were cultured as described above. HeLa cells were cultured in DMEM medium supplemented with 10% Fetal Calf Serum, 100 μg/mL Streptomycin, 100 units/ml Penicillin and 2 mM Glutamine. One hour prior to being used for cell extract preparation, PTC cells were activated with IL-1 as described above, whereas HeLa cells were activated by UV-light (20 J/m^2). Cell extracts were prepared from control, UV-light irradiated HeLa cells and IL-1 treated TC-3 cells by scraping the cell cultures in lysis buffer (20 mM Tris-acetate, 1 mM EGTA, 1% Triton X-100, 10 mM p-nitrophenyl-phosphate, 5 mM sodium pyrophosphate, 10 mMP-glycerophosphate, 1 mM dithiothreitol). Debris was removed by centrifugation for five minutes at 15,000 rpm in an SS-34 Beckman rotor. One-hundred μg extracts were incubated for one hour at room temperature with one μg GST-jun (amino acids 1-89) and 10 μL of glutathione-agarose beads (Sigma). Following four washes with the scraping buffer, the beads were resuspended in the same buffer supplemented with L-TAT or L-TAT-IB1(s) peptides (25 μM) for 20 minutes. […]
# [4] = test system: AP-1 DNA binding complex, HeLa cell nuclear extracts; test: Gel retardation assay with AP-1 probe; format: cell-based; conditions: in the presence of TNF-alpha
# TC-3 cells = test: IL-1 induced pancreatic beta-cell death; format: cell-based; conditions: one single addition 1 μM
# Experimental: Inhibition of IL-1 induced pancreatic beta-cell death by the D-TAT-IB1(s) peptide was analyzed. TC-3 cells were incubated as described above for 30 minutes with one single addition of the indicated peptides (1, μM), then IL-1 (10 ng/ml) was added.
# Apoptotic cells were then counted after two days of incubation with IL-1 by use of Propidium Iodide and Hoechst 33342 nuclear staining. A minimum of 1,000 cells were counted for each experiment. Standard Error of the Means (SEM) are indicated, n=5.
# Long term inhibition of IL-1P induced cell-death by the D-TAT-IB1 peptide was also analyzed. TC-3 cells were incubated as above for 30 minutes with one single addition of the indicated peptides (1 μM), then IL-1 (10 ng/ml) was added, followed by addition of the cytokine every two days. Apoptotic cells were then counted after 15 days of incubation with IL-1 by use of propidium iodide and Hoechst 33342 nuclear staining. […] A minimum of 1.000 cells were counted for each experiment.
# [5] = test system: recombinant JNK1, JNK2 and JNK3; test: Solid phase kinase assay, phosphorylation of c-Jun, ATF2 and Elk1; format: biochemical; conditions: dose response 0-25 μM
# Experimental: The effects of the peptides on JNKs-mediated phosphorylation of their target transcription factors were investigated in vitro. Recombinant and non activated JNK1, JNK2 and JNK3 were produced using a TRANSCRIPTION AND TRANSLATION rabbit reticulocyte lysate kit (Promega) and used in solid phase kinase assays with c-Jun, ATF2 and Elk1, either alone or fused to glutathione-S-transferase (GST), as substrates. Dose response studies were performed wherein L-TAT or L-TAT-IB1(s) peptides (0-25 μM) were mixed with the recombinant JNK1, JNK2, or JNK3 kinases in reaction buffer (20 mM Tris-acetate, 1 mM EGTA, 10 mM p-nitrophenyl-phosphate (pNPP), 5 mM sodium pyrophosphate, 10 mM p-glycerophosphate, 1 mM dithiothreitol) for 20 minutes. The kinase reactions were then initiated by the addition of 10 mM MgCl2 and 5 pCi ^33P-dATP and 1 μg of either GST-Jun (aa 1-89), GST-AFT2 (aa 1-96) or GST-ELK1 (aa 307-428). GST-fusion proteins were purchased from Stratagene (La Jolla, Calif.).
# Ten μL of glutathione-agarose beads were also added to the mixture. Reaction products were then separated by SDS-PAGE on a denaturing 10% polyacrylamide gel. Gels were dried and subsequently exposed to X-ray films (Kodak). […] The ability of D-TAT, D-TAT-IB1(s) and L-TAT-IB1(s) peptides (0-250 μM dosage study) to inhibit GST-Jun (aa 1-73) phosphorylation by recombinant JNK1, JNK2, and JNK3 by were analyzed as described above. […]
# TC-3 cell cultures = test: Cellular import of fluorescein labeled TAT and TAT-IB1(s) peptides; format: cell-based; conditions: labeled peptides 1 μM
# Experimental: The ability of the L- and D-enantiomeric forms of TAT and TAT-IB1(s) peptides (“TAT-IB peptides”) to enter cells was evaluated. L-TAT, D-TAT, L-TAT-IB1(s), and D-TAT-IB1(s) peptides [SEQ ID NOs: 5, 6, 9 and 12, respectively] were labeled by N-terminal addition of a glycine residue conjugated to fluorescein. Labeled peptides (1 μM) were added to TC-3 cell cultures, which were maintained as described in Example 3. At predetermined times cells were washed with PBS and fixed for five minutes in ice-cold methanol-acetone (1:1) before being examined under a fluorescence microscope. Fluorescein-labeled BSA (1 μM, 12 moles/mole BSA) was used as a control.
# Little to no signal was present at 48 hours.
# Fluorescent signals from these all-D retro-inverso peptides were still very strong 1 week later, and the signal was only slightly diminished at 2 weeks post treatment.
compound,measurement,setting,value
"CC(C)(C)[N+]([O-])=Cc1ccccc1 [PBN, Phenyl-N-tert-Butylnitrone, reference compound]",decrease of mean ONL thickness vs untreated eyes,"[1]; PBN i.p., Day 23",16%
same,"ERG B-wave amplitude, percent of the baseline, Mean ± SD","[1]; rat, in vivo, ip, 50 mg/kg",100 ± 18.6%
GRKKRRQRRRPPRPKRPTTLNLFPQVPRSQD (Description of sequence: L-TAT-IB1 (s) (see Table 1)) [L-TAT-IB1(s)],activation of c-Jun following MKK4 and MKK7 mediated activation of JNK (luciferase),[2],blocked activation of c-Jun following MKK4 and MKK7 mediated activation of JNK
same,prevention of phosphorylation of c-Jun by activated JNKs,[3],efficiently prevented phosphorylation of c-Jun by activated JNKs
same,formation of the AP-1 DNA binding complex,[4],decrease the formation of the AP-1 DNA binding complex
same,long term (15 day) protection from IL-1 induced cell-death,TC-3 cells; IL-1 every two days,"but not L-TAT-IB1(s), was able to confer long term (15 day) protection"
same,"peptide dose giving nearly complete inhibition of c-Jun, ATF2 and Elk1 phosphorylation by JNKs",[5],2.5 µM
TDQSRPVQPFLNLTTPRKPRYTDPPRRRQRRKKRG ([dT][dD][dQ][dS][dR][dP][dV][dQ][dP][dF][dL][dN][dL][dT][dT][dP][dR][dK][dP][dR][dY][dT][dD][dP][dP][dR][dR][dR][dQ][dR][dR][dK][dK][dR]G) [D-TAT-IB1],IL-1 induced apoptosis after two days,TC-3 cells; IL-1 10 ng/ml,decreased IL-1 induced apoptosis to a similar extent as L-TAT-IB peptides
"Fluorescein-labeled BSA: fluorescein labeled bovine serum albumin (1 μM BSA, 12 moles fluorescein/mole BSA), control",entry into cells,TC-3 cell cultures,did not enter the cells
